Data from US20190224347A1, “Detection of Renal Amyloidosis by Imaging with Stilbene or Phenylbenzothiazole Derivatives” (Mayo Foundation for Medical Education and Research, priority 2018, published 2019).

Biological target: T1, leucocyte cell-derived chemotaxin-2 (LECT2) amyloidosis (Homo sapiens, UniProt O14960)
T1 construct: biopsy-confirmed leucocyte cell-derived chemotaxin-2 (LECT2) amyloidosis underwent a positron emission tomography/computed tomography (PET/CT) scan with florbetapir; from tissue; host or cells: Living patient: amyloid deposits in lungs, spleen, adrenal glands, kidneys and bone marrow
T1 sequence (O14960 19-151): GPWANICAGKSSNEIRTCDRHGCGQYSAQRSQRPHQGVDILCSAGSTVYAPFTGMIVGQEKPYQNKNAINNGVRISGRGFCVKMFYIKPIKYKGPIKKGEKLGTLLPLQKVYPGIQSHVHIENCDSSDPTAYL
Assay: PET/CT scan with florbetapir 18F in a patient with biopsy-confirmed LECT2 amyloidosis
Type: in vivo
Experimental: Administration to the subject of a pharmaceutical composition including a radiolabeled stilbene derivative or phenylbenzothiazole derivative chosen from the compounds of Formulas (I) to (VII) above for in vivo detection of the accumulated compound in LECT2-based protein structures can be accomplished intravenously, intraarterially, intrathecally, intramuscularly, intradermally, subcutaneously, or intracavitary. Dosage can vary. In one non-limiting example, dosage may vary from 0.001 μg/kg to 10 μg/kg. In another non-limiting example, the dose for florbetapir may be 370 MBq (10 mCi), maximum 50 μg mass dose, administered as a single intravenous bolus in a total volume of 10 mL or less. The injection may be followed with an intravenous flush of 0.9% sterile sodium chloride. In the method of the invention, sufficient time is allowed after administration such that the radiolabeled stilbene derivative or phenylbenzothiazole derivative can accumulate in any LECT2-based protein structures.
A person with end stage renal disease on haemodialysis secondary to biopsy-confirmed leucocyte cell-derived chemotaxin-2 (LECT2) amyloidosis underwent a positron emission tomography/computed tomography (PET/CT) scan with florbetapir ^18F. […] These organs normally have low activity on florbetapir PET/CT. The activity pattern is consistent with pathological data on the distribution of amyloidosis in this disease. […] A remarkable finding in this patient is the uptake in the kidney because they make little urine and is on chronic haemodialysis.

PET/CT activity in the heart (PET/CT, same patient, heart): normal background activity
Compound: CNc1ccc(/C=C/c2ccc(OCCOCCOCC[18F])nc2)cc1 [florbetapir ^18F]
PET/CT activity in bone marrow (PET/CT, same patient, bone marrow): diffuse intense activity above normal background | accumulation in LECT2-based protein structures (positron emission tomography): accumulates within LECT2-based protein structures
